# Source: ChEMBL document CHEMBL1157539, “Thousands of chemical starting points for antimalarial lead identification” (Nature, 2010)
# Counter-ions that a name gives are not always drawn.
# Test system: Plasmodium falciparum
# Test: GSK_TCMDC: Inhibition of Plasmodium falciparum 3D7 in whole erythrocytes, using parasite LDH activity as an index of growth.
# Assay type: functional, organism-based
# Details: not given
row,SMILES,XC50 [nM]
1,CN(Cc1cnc2nc(N)nc(N)c2n1)c1ccc(C(=O)N[C@@H](CCC(=O)O)C(=O)O)cc1 [METHOTREXATE],178
2,COc1ccc(C[C@H](N)C(=O)N[C@H]2[C@@H](O)[C@H](n3cnc4c(N(C)C)ncnc43)O[C@@H]2CO)cc1 [PUROMYCIN],174
3,CCc1nc(N)nc(N)c1-c1ccc(Cl)cc1 [PYRIMETHAMINE],31.8
4,C=C[C@H]1CN2CC[C@H]1C[C@H]2[C@H](O)c1ccnc2ccc(OC)cc12 [QUININE HYDROCHLORIDE],95.2

# Same assay, conditions: Plasmodium falciparum, 3D7
row,SMILES,XC50 [nM]
1,CN(Cc1cnc2nc(N)nc(N)c2n1)c1ccc(C(=O)N[C@@H](CCC(=O)O)C(=O)O)cc1 [METHOTREXATE],100
2,Cc1nc(N)nc(N)c1-c1ccc(Cl)c(Cl)c1 [METOPRINE],79.6
3,CC(C)=CCc1c(-c2ccc(O)cc2O)oc2c3c(cc(O)c2c1=O)OC(C)(C)C=C3 [MORUSIN],977
4,CCCCCCCC/C=C\CCCCCCCC(=O)NCc1ccc(O)c(OC)c1 [OLVANIL],402
5,Cc1nc2ccc3ccc(CNc4ccc5c(c4)CN([C@@H](CCC(=O)O)C(=O)O)C5=O)cc3c2c(=O)[nH]1 [OSI-7904],164
6,CCCCc1ccc2[nH]c(NC(=O)OC)nc2c1 [PARBENDAZOLE],683
7,CCN(CC)CCOc1ccc(Nc2ncc3cc(-c4c(Cl)cccc4Cl)c(=O)n(C)c3n2)cc1 [PD-0166285],1180
8,N=C(N)c1ccc(OCCCCCOc2ccc(C(=N)N)cc2)cc1 [PENTAMIDINE HYDROCHLORIDE],140
9,Cc1[nH]c(/C=C2\C(=O)Nc3ccc(S(=O)(=O)Cc4c(Cl)cccc4Cl)cc32)c(C)c1C(=O)N1CCC[C@@H]1CN1CCCC1 [PHA-665752],720
10,COc1ccc(OC)c(Cc2cnc3nc(N)nc(N)c3c2C)c1 [PIRITREXIM],10.2
11,COc1cc2c(cc1O)[C@@H]1[C@H](O)[C@@H](O)C=C3CCN(C2)[C@H]31 [PSEUDOLYCORINE],991
12,CCc1nc(N)nc(N)c1-c1ccc(Cl)cc1 [PYRIMETHAMINE],59.5
13,C=C[C@H]1CN2CC[C@H]1C[C@@H]2[C@@H](O)c1ccnc2ccc(OC)cc12 [QUINIDINE],118
14,C=C[C@H]1CN2CC[C@H]1C[C@H]2[C@H](O)c1ccnc2ccc(OC)cc12 [QUININE HYDROCHLORIDE],145
15,c1ccc(-c2cccc(-c3ccccn3)n2)nc1 [TERPYRIDINE],901
16,c1ccc(CC2=NCCN2)cc1 [TOLAZOLINE HYDROCHLORIDE],188
17,CN1CCC(COC(=O)C(O)(c2ccccc2)c2ccccc2)C1 (centres undefined) [TRICLAZATE],997
18,COc1cc(Cc2cnc(N)nc2N)cc(OC)c1OC [TRIMETHOPRIM],755
19,O=C1c2ccccc2-n2c1nc1ccccc1c2=O [TRYPTANTHRIN],856
20,FC(F)c1nc2ccccc2n1-c1nc(N2CCOCC2)nc(N2CCOCC2)n1 [ZSTK-474],761
